In patent US20250145606A1 (Arcus Biosciences, Inc., priority 2023, published 2025):
Where two headings read alike, the source gives them in different places.

Experiments:
CSF1R = CSF1R (Homo sapiens (Human), UniProt P07333); experiment: Inhibition of CSF1R kinase activity (HTRF KinEASE-TK); details: biochemical, HTRF KinEASE-TK
Method in brief: (§1)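 Human kinases were preincubated 1 h at rt with a 22-point 1:2 compound titration, then run 120 min at rt with biotinylated TK peptide and ATP (2× mix: c-Kit 16 μM, PDGFRα 1 μM, PDGFRβ 40 μM, CSF1R 20 μM). Phosphopeptide was read by HTRF TR-FRET (665/620 nm), and IC50s came from 4-parameter fits.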

PDGFRα = PDGFRα (Homo sapiens (Human), UniProt P16234); experiment: Inhibition of PDGFRα kinase activity (HTRF KinEASE-TK); details: biochemical, HTRF KinEASE-TK
Method in brief: as §1

PDGFRβ = PDGFRβ (Homo sapiens (Human), UniProt P09619); experiment: Inhibition of PDGFRβ kinase activity (HTRF KinEASE-TK); details: biochemical, HTRF KinEASE-TK
Method in brief: as §1

c-Kit = c-Kit (Homo sapiens (Human), UniProt P10721); experiment: Inhibition of c-Kit kinase activity (HTRF KinEASE-TK); format: biochemical; details: biochemical, HTRF KinEASE-TK
Method in brief: as §1

[1] = system: Phospho-KIT (Y703) in M07e cells; experiment: Phospho-KIT (Y703) cellular assay in M07e cells; format: cell-based; details: M-07e, M07e cells
Experimental: Phospho-KIT (Y703) Cellular Assay in M07e Cells
The day prior to assay, M07e cells (DSMZ, catalog #ACC 104) were serum starved. Cells were centrifuged and cell pellet resuspended in OptiMEM (Gibco, catalog #31985062) to a density of 1×10^6-2.5×10^6 cells per mL. Cells were then incubated overnight at 5% CO2 and 37° C. in an appropriately sized flask. On the day of the experiment, an 11 point, half log titration of test compound was pre-dispensed into 96-well round bottom polypropylene plates (Corning, catalog #3365). The serum starved M07e cells were centrifuged and resuspended to a cell density of 1×10^6 cells per mL with DPBS (Gibco, catalog #14190-144). Live/Dead Green Fixable viability dye (Invitrogen, catalog #L34970) was added as 1 μL/1 mL of cell suspension. Cells were then incubated in the dark at 4° C. for 30 min. Cells were washed by centrifugation and resuspension with DPBS+0.5% BSA (Gemini Bio Products, catalog #700110/100, 30% BSA solution). Cells were resuspended, separated into two equal volumes and again centrifuged. Cell pellets were resuspended with OptiMEM™ to a cell density of 1×10^6 cells per mL. Cells were then added to the appropriate compound plate at 100,000 cells per well in 100 μL and mixed. Plates were incubated at 5% CO2 and 37° C. for 50 min. Stem Cell Factor, SCF (R&D Systems, #255-SC/CF) was diluted in OptiMEM to 1 μg/mL and added to all wells as 10 μL for a final concentration of 90.9 ng/mL. Plates were incubated at 5% CO2 and 37° C. for 10 min. Incubation was stopped by addition of 110 μL 4% paraformaldehyde solution in PBS (Life Technologies, catalog #J19943.K2). Plates were incubated at rt for at least 15 min. Plates were then centrifuged and supernatant removed by flicking. Cells were washed once by resuspension in 200 μL DPBS+0.5% BSA, centrifuged, and supernatant removed by flicking. Cells were resuspended in 100 μL 1X Permeabilization buffer (Invitrogen, catalog #88882400) and plates incubated at rt for 30 min. Plates were centrifuged, supernatant removed by flicking, and cells resuspended in 50 μL primary antibody, anti-phospho-c-KIT (Tyr703) (Cell Signaling, catalog #3073), diluted to 1 μg/mL with permeabilization buffer. Plates were incubated at rt for 1 h. Plates were centrifuged, supernatant removed, and cells resuspended with 200 μL DPBS+0.5% BSA. Plates were again centrifuged, supernatant removed by flicking, and cells resuspended in 100 μL secondary antibody, goat anti-rabbit AlexaFluor647 (AF647) (Invitrogen, catalog #A21244) diluted to 1 μg/mL with DPBS+0.5% BSA. Plates were incubated at rt for 30 min. followed by centrifugation, supernatant removal, and cell resuspension with 200 μL DPBS+0.5% BSA. Cells were washed again by centrifugation, supernatant removal, and cell resuspension with 200 μL DPBS+0.5% BSA. Samples were then read by flow cytometry. The Forward: Side scatter plot was gated and that population was gated for live cells based on the Live/Dead Green staining. The geometric mean of AF647 of the live cell population was recorded. Percentage maximum activity in each test well was calculated based on DMSO (100% activity) and positive control treated cell wells (0% activity). The potencies (IC50 values) of test compounds were determined using a standard 4-parameter non-linear regression fit.

[2] = read-out: Phospho-KIT (Y703) cellular IC50
[3] = Phospho-KIT (Y703), read-out: M07e Cell IC50

Sequence of PDGFRα (P16234 24-1089): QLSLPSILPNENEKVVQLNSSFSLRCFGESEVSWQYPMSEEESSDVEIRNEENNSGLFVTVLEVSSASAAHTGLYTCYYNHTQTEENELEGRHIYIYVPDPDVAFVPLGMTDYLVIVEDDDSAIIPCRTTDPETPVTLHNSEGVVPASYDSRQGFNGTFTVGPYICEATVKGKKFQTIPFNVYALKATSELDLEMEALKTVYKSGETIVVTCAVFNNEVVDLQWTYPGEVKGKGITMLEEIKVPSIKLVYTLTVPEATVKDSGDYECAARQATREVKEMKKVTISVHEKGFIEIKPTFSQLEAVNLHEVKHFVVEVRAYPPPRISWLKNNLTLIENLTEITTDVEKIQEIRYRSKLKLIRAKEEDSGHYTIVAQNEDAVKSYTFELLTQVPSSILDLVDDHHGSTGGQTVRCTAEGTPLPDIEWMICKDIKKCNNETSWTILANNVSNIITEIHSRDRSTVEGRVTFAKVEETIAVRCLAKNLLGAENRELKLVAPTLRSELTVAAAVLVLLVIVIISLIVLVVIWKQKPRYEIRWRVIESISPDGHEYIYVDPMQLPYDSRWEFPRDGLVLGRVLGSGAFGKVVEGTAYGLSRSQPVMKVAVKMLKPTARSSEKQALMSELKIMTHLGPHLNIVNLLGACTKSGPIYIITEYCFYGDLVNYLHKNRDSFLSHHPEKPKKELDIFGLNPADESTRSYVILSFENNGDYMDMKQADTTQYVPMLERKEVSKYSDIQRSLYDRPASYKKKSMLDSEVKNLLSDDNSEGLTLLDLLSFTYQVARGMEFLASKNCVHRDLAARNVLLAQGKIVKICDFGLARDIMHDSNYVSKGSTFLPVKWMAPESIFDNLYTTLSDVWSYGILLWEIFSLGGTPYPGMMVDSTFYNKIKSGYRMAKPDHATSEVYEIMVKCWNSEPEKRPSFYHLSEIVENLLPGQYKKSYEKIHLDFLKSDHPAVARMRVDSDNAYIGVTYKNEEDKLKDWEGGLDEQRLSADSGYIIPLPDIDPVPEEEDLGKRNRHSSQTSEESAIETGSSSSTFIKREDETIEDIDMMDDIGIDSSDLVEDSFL
Sequence of PDGFRβ (P09619 33-1106): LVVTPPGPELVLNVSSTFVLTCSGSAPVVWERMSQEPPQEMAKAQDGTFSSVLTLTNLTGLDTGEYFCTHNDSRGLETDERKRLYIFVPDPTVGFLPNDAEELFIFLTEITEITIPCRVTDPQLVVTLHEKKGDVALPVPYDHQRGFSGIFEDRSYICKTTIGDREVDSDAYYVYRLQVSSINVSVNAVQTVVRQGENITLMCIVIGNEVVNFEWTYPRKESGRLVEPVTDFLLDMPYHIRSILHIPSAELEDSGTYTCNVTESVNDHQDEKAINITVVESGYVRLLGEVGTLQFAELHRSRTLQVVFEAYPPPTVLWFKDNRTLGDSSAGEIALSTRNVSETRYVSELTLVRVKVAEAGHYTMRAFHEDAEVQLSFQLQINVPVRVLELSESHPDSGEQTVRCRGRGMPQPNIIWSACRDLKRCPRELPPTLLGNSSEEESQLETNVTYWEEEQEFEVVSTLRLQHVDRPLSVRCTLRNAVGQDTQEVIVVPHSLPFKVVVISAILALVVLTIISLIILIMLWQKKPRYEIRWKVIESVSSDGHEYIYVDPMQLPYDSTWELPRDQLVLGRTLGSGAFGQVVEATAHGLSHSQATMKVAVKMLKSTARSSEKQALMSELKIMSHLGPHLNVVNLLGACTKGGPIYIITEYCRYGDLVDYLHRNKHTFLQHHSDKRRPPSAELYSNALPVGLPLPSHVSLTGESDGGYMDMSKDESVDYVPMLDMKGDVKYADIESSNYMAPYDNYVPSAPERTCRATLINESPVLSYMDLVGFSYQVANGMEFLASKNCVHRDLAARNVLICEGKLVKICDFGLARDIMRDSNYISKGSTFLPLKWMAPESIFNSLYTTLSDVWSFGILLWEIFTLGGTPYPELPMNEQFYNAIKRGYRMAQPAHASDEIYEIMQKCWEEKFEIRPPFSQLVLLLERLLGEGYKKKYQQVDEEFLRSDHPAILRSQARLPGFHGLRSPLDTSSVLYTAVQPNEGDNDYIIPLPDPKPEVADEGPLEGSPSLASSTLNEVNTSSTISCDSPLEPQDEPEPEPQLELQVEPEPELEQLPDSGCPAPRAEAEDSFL
Sequence of CSF1R (P07333 20-972): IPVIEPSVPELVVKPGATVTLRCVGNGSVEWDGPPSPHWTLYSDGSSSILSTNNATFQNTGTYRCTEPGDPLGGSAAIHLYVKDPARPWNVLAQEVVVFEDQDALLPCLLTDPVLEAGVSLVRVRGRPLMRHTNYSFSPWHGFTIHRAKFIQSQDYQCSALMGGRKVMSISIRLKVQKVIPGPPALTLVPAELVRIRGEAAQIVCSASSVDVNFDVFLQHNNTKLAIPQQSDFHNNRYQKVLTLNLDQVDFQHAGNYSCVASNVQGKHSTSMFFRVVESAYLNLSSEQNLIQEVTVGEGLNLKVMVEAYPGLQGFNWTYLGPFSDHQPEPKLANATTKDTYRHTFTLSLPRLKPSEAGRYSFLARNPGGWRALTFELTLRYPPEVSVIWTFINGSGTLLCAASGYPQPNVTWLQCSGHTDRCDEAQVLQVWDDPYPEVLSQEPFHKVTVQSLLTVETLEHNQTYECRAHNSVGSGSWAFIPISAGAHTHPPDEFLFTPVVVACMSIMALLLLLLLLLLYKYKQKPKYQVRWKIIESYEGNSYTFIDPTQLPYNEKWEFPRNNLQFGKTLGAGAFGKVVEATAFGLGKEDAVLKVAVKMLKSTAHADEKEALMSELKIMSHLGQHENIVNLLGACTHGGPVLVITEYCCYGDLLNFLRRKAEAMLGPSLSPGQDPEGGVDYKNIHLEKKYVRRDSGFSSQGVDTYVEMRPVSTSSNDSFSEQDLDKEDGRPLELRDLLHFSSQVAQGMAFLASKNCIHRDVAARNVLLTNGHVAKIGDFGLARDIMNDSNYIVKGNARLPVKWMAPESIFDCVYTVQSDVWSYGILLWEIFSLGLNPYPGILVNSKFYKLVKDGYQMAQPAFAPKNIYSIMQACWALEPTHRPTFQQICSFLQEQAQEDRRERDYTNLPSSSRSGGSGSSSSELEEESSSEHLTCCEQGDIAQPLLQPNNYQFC
Sequence of c-Kit (P10721 26-976): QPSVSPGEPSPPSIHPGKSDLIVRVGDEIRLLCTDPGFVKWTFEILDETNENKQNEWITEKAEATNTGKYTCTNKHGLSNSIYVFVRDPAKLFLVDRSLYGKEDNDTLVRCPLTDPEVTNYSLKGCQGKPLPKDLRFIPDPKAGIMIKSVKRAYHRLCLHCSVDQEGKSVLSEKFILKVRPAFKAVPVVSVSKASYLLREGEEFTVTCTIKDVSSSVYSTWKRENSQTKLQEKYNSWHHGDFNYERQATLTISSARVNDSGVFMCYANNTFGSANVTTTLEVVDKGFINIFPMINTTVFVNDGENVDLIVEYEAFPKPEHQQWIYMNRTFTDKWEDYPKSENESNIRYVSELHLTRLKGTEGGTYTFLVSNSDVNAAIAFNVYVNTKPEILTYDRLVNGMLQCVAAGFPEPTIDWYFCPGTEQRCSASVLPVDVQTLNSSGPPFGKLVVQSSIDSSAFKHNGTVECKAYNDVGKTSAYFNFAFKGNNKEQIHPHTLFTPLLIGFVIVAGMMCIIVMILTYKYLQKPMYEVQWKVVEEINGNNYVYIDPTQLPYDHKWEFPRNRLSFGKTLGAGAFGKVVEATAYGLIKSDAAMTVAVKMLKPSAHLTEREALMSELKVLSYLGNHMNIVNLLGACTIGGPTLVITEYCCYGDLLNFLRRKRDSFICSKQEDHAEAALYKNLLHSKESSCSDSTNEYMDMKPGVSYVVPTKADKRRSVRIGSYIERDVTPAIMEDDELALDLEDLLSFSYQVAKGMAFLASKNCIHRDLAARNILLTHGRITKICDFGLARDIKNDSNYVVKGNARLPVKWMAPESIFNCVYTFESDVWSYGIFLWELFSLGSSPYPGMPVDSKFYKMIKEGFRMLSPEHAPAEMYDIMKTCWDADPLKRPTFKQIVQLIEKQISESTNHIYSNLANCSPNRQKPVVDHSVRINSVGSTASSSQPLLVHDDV

Compound | IC50 (CSF1R) | IC50 (PDGFRα) | IC50 (PDGFRβ) | IC50 (c-Kit) | IC50 [1, 2] | IC50 [1, 3]
Cc1ncc(C(=O)Nc2cc(C(=O)NCc3cccc(F)c3F)c(F)cc2C)s1 [Example 265, N-[5-[(2,3-difluorophenyl)methylcarbamoyl]-4-fluoro-2-methylphenyl]-2-methyl-1,3-thiazole-5-carboxamide] | > 1000 nM | > 1000 nM | > 1000 nM | < 100 nM | < 100 nM | 
COC1CN(c2cnc(NC(=O)c3cc(NC(=O)c4cnc(C)s4)c(C)cc3F)cn2)C1 [Example 73, N-(4-fluoro-5-((5-(3-methoxyazetidin-1-yl)pyrazin-2-yl)carbamoyl)-2-methylphenyl)-2-methylthiazole-5-carboxamide] | > 1000 nM | > 1000 nM | > 1000 nM | < 100 nM |  | < 100 nM
Cc1ncc(C(=O)Nc2cc(C(=O)NCc3ccc(F)cc3)c(F)cc2C)s1 [Example 262, N-[4-fluoro-5-[(4-fluorophenyl)methylcarbamoyl]-2-methylphenyl]-2-methyl-1,3-thiazole-5-carboxamide] | > 1000 nM | > 1000 nM | > 1000 nM | < 100 nM | < 100 nM | 
CO[C@@H]1CCN(c2cnc(NC(=O)c3cc(NC(=O)c4cnc(C)s4)c(C)cc3F)cn2)C1 [Example 74, (R)—N-(4-fluoro-5-((5-(3-methoxypyrrolidin-1-yl)pyrazin-2-yl)carbamoyl)-2-methylphenyl)-2-methylthiazole-5-carboxamide] | > 1000 nM | > 1000 nM | > 1000 nM | < 100 nM |  | < 100 nM
Cc1cc(F)c(C(=O)Nc2ccc(COC(F)F)cn2)cc1NC(=O)c1cnc(N)s1 [Example 254, 2-Amino-N-[5-[[5-(difluoromethoxymethyl)pyridin-2-yl]carbamoyl]-4-fluoro-2-methylphenyl]-1,3-thiazole-5-carboxamide] | 100 to 1000 nM | > 1000 nM | < 100 nM | < 100 nM |  | < 100 nM
Cc1ncc(C(=O)Nc2cc(C(=O)NCc3ccc(F)c(F)c3)c(F)cc2C)s1 [Example 266, N-[5-[(3,4-difluorophenyl)methylcarbamoyl]-4-fluoro-2-methylphenyl]-2-methyl-1,3-thiazole-5-carboxamide] | > 1000 nM | > 1000 nM | > 1000 nM | < 100 nM | < 100 nM | 
Cc1ncc(C(=O)Nc2cc(C(=O)NCc3ccc(F)cc3F)c(F)cc2C)s1 [Example 263, N-[5-[(2,4-difluorophenyl)methylcarbamoyl]-4-fluoro-2-methylphenyl]-2-methyl-1,3-thiazole-5-carboxamide] | > 1000 nM | > 1000 nM | > 1000 nM | < 100 nM | < 100 nM | 
Cc1ncc(C(=O)Nc2cc(C(=O)Nc3cnc(OC(F)F)cn3)c(F)cc2C)s1 [Example 15, N-[5-[[5-(Difluoromethoxy)pyrazin-2-yl]carbamoyl]-4-fluoro-2-methylphenyl]-2-methyl-1,3-thiazole-5-carboxamide] | > 1000 nM |  |  | < 100 nM |  | < 100 nM
Cc1cc(F)c(C(=O)Nc2cncc(C(F)F)c2)cc1NC(=O)c1cnc(N)s1 [Example 246, 2-Amino-N-[5-[[5-(difluoromethyl)pyridin-3-yl]carbamoyl]-4-fluoro-2-methylphenyl]-1,3-thiazole-5-carboxamide] | < 100 nM |  |  | < 100 nM |  | < 100 nM
Cc1ncc(C(=O)Nc2cc(C(=O)Nc3ccnc(C#N)c3)c(F)cc2C)s1 [Example 18, N-[5-[(2-Cyanopyridin-4-yl)carbamoyl]-4-fluoro-2-methylphenyl]-2-methyl-1,3-thiazole-5-carboxamide] | > 1000 nM |  |  | < 100 nM |  | 100 to 1000 nM
Cc1ncc(C(=O)Nc2cc(C(=O)Nc3cncc(C4CC4)c3)c(F)cc2C)s1 [Example 53, N-[5-[(5-cyclopropylpyridin-3-yl)carbamoyl]-4-fluoro-2-methylphenyl]-2-methyl-1,3-thiazole-5-carboxamide] | > 1000 nM |  |  | < 100 nM |  | < 100 nM
Cc1ncc(C(=O)Nc2cc(C(=O)Nc3cnc(C(F)F)cn3)c(F)cc2C)s1 [Example 56, N-[5-[[5-(difluoromethyl)pyrazin-2-yl]carbamoyl]-4-fluoro-2-methylphenyl]-2-methyl-1,3-thiazole-5-carboxamide] | > 1000 nM |  |  | 100 to 1000 nM |  | 100 to 1000 nM
Cc1cc(F)c(C(=O)Nc2cccnc2C)cc1NC(=O)c1cnc(N)s1 [Example 250, 2-Amino-N-[4-fluoro-2-methyl-5-[(2-methylpyridin-3-yl)carbamoyl]phenyl]-1,3-thiazole-5-carboxamide] | > 1000 nM |  |  | 100 to 1000 nM |  | 100 to 1000 nM
Cc1ncc(C(=O)Nc2cc(C(=O)Nc3cncc(C(F)F)c3)c(F)cc2C)s1 [Example 76, N-[5-[[5-(difluoromethyl)pyridin-3-yl]carbamoyl]-4-fluoro-2-methylphenyl]-2-methyl-1,3-thiazole-5-carboxamide] | > 1000 nM |  |  | < 100 nM |  | < 100 nM
Cc1ncc(C(=O)Nc2cc(C(=O)Nc3ccc(C#N)cn3)c(F)cc2C)s1 [Example 19, N-[5-[(5-Cyanopyridin-2-yl)carbamoyl]-4-fluoro-2-methylphenyl]-2-methyl-1,3-thiazole-5-carboxamide] | > 1000 nM |  |  | 100 to 1000 nM |  | 100 to 1000 nM
Cc1ncc(C(=O)Nc2cc(C(=O)Nc3cnc(C(F)(F)F)cn3)c(F)cc2C)s1 [Example 29, N-[4-fluoro-2-methyl-5-[[5-(trifluoromethyl)pyrazin-2-yl]carbamoyl]phenyl]-2-methyl-1,3-thiazole-5-carboxamide] | > 1000 nM |  |  | < 100 nM |  | < 100 nM
Cc1ncc(C(=O)Nc2cc(C(=O)Nc3ccnc(OC(F)F)c3)c(F)cc2C)s1 [Example 21, N-[5-[[2-(Difluoromethoxy)pyridin-4-yl]carbamoyl]-4-fluoro-2-methylphenyl]-2-methyl-1,3-thiazole-5-carboxamide] | > 1000 nM |  |  | < 100 nM |  | < 100 nM
CCc1cnc(NC(=O)c2cc(NC(=O)c3cnc(C)s3)c(C)cc2F)cn1 [Example 27, N-[5-[(5-ethylpyrazin-2-yl)carbamoyl]-4-fluoro-2-methylphenyl]-2-methyl-1,3-thiazole-5-carboxamide] | > 1000 nM |  |  | < 100 nM |  | < 100 nM
Cc1ncc(C(=O)Nc2cc(C(=O)Nc3cccc(C(F)(F)F)n3)c(F)cc2C)s1 [Example 55, N-[4-fluoro-2-methyl-5-[[6-(trifluoromethyl)pyridin-2-yl]carbamoyl]phenyl]-2-methyl-1,3-thiazole-5-carboxamide] | > 1000 nM |  |  | < 100 nM |  | < 100 nM
Cc1ncc(C(=O)Nc2cc(C(=O)Nc3ccnc(C(F)F)c3)c(F)cc2C)s1 [Example 22, N-[5-[[2-(Difluoromethyl)pyridin-4-yl]carbamoyl]-4-fluoro-2-methylphenyl]-2-methyl-1,3-thiazole-5-carboxamide] | > 1000 nM |  |  | < 100 nM |  | 100 to 1000 nM
